Legend:
[1] = test system: lyso-PA acyl transferase (LPAAT); test: Inhibition of LPAAT shown by the invention assay; assay type: cell-based, human
Protocol: (§1) This example also illustrates the method of the invention.
(§2) Human glomerular mesangial cells were incubated with IL-1 for various time periods of 5-60 seconds and the cells were fixed in ice-cold methanol, and the lipids extracted using chloroform:methanol 2:1 (v/v). It is very important that the fixing/extraction process be conducted quickly so that the decomposition of unstable intermediates is halted.
(§3) The extracts were subjected to HPLC on a Rainin mu-Porasil column with a 3:4 hexane:propanol organic carrier and a 1-10% water gradient during the first 10 minutes of separation. The relative concentration of each lipid species is determined using absorption at 206 nm (A206), which follows unsaturated acyl content of lipid species. […] The absolute mass of each lipid species is determined by isolation of the lipid using a fraction collector, repurification on the HPLC column. Determination of phospholipid phosphorus is as nmoles/mg cellular protein. Protein concentration is determined using the Bradford technique.
(§4) Thus, the lyso PA that accumulates contains high levels of unsaturated fatty acids. Pentoxifylline in a dose range greater than 500 μM results in inhibition both of phosphatidate phosphohydrolase and of lyso PA acyl transferase.

[2] = test system: phosphatidic acid phosphohydrolase (PAPH); test: Inhibition of PAPH shown by the invention assay; assay type: cell-based, human
Protocol: as §1, §2, §3, §4

[3] = test system: NIH3T3 cell line (D5C3) transformed with temperature-sensitive v-abl; test: Blocking transformed phenotype of D5C3 cells; assay type: cell-based, murine
[4] = test system: Human glomerular mesangial cells stimulated with IL-1; test: Invention assay: HPLC of lipids (PA, DAG) from mesangial cells stimulated with IL-1; assay type: cell-based
Protocol: The compounds of Formula I are shown to modulate the effects of primary stimuli which elevate levels of the relevant subspecies of PA and DAG using the assay system of the invention. In general for the assay, the cells to be tested are first incubated with the primary stimulating agent for various time periods and fixed in ice-cold methanol. The lipids are extracted using, for example, chloroform:methanol 2:1 (v/v), and the extracts are then subjected to HPLC as described by Bursten and Harris, Biochemistry (1991). In this method, a Rainin mu-Porasil column is used with a 3:4 hexane:propanol organic carrier and a 1-10% water gradient during the first 10 minutes of separation. Detection of the peaks in the elution pattern is by absorption in the range of ultraviolet which detects isolated double bonds. Thus, the relevant peaks of unsaturated PA and DAG are shown in the elution pattern. It is important to note that the assay method permits discrimination between various forms of PA and DAG so that those relevant to the pathway affected by the compounds of Formula I can be measured directly. Confirmation of the nature of the acyl substituents of these components is accomplished using fast-atom bombardment mass spectroscopy. Thus, the relevant unsaturated (non-arachidonic) PA and DAG subspecies may be detected. The time periods employed are 5-60 seconds after stimulation with the primary stimulus, such as a cytokine. This technique permits assessment of the levels of various lipid components as a function of time.
To test the effect of the compounds of the invention, the candidate compound is included in the initial incubation at various concentrations. Fixing, extraction and HPLC are conducted as above. The effect of the candidate compound is then reflected in a lowering of the relevant PA and DAG levels as compared to the cells without candidate in the control as illustrated hereinbelow.
as §2, §3
After contacting HMC with 10^-11 M interleukin-1, a marked redistribution of phospholipids and metabolites is apparent within 5 seconds (FIG. 2), including a significant increase in PA and DAG. FIGS. 3 and 4 show the HPLC after stimulation with IL-1 for 15 seconds and 60 seconds, respectively. PA has been converted into DAG by action of phosphatidate phosphohydrolase at 15 seconds; but the PA peak reappears after 60 seconds.
The HMC were also reacted with 10^-11 M IL-1 in the presence of various concentrations of pentoxifylline. […] A large peak representing pentoxifylline is present.

[5] = test system: NIH3T3 murine fibroblast cells transformed with a mutated K-ras; test: Growth and soft agar colonies of K-ras transformed NIH3T3 cells in vitro; assay type: cell-based; details: concentrations at or greater than 0.5 mM
Protocol: Additionally, NIH3T3 murine fibroblast cells transformed with a mutated K-ras (codon 12 Gly-Val) were tested in vitro and in nude mice.

[6] = test system: SV40 T-antigen-transformed human kidney mesangial cells; test: Tritiated thymidine uptake of transformed mesangial cells with rhIL-1 or TNFα; assay type: cell-based
Protocol: SV40 T-antigen-transformed human kidney mesangial cells were cultured under standard conditions with rhIL-1 or with TNFα with and without pentoxifylline (PTX). Transformed mesangial cells grow independently of added growth factors, but IL-1 and TNFα are the normal proliferative signals for mesangial cells. As was shown in Example 1, when IL-1 is added to kidney mesangial cells, within 30 seconds LPAAT and PAPH are activated; the effect of both of these enzymes is inhibited by pentoxifylline at 1 mM. In this experiment, the growth of the treated cells was measured using tritiated thymidine uptake.

[7] = test system: human leukemic cell line (Mo7e); test: GM-CSF stimulated colony formation of Mo7e cells; assay type: cell-based; details: semisolid medium, colonies counted after 10 days
Protocol: The human leukemic cell line (Mo7e) is dependent on added granulocyte-macrophage colony-stimulating factor (GM-CSF) for growth. Mo7e cells were cultured in semisolid medium with and without pentoxifylline (PTX) and rhGM-CSF. Colonies were counted 10 days after culture initiation under an inverted microscope. […] PTX thus prevents the up-regulation of activation-associated genes which inhibit proliferation.

[8] = test system: TNFα transcripts in U937 cells; test: Northern blot of TNFα transcripts in LPS-induced U937 cells; assay type: cell-based; details: 1 mM PTX, LPS three hours
[9] = test system: IL-6 transcripts in bone marrow stromal cells; test: Northern blot of IL-6 transcripts in bone marrow stromal cells; assay type: cell-based; details: three-hour exposure, increasing concentrations
[10] = test system: Steel factor transcripts in marrow stromal cell lines; test: Northern blot of Steel factor transcripts in marrow stromal cell lines; assay type: cell-based; details: three-hour incubation, passaged or cloned (CDCL) lines
CD3-positive lymphocytes = test: Proliferation and transcripts of anti-CD3 stimulated lymphocytes; assay type: cell-based
Protocol: In these experiments, freshly isolated, CD2-positive cells were stimulated by a solid-phase monoclonal antibody to acquire a CD3 phenotype, and then PTX was added. […] The block in proliferation could not be overcome by addition of either tumor necrosis factor (FIGS. 20 and 21) or IL-1 (FIG. 21). […] The cytokines and PTX were added at culture inception and the cells were harvested after 5 days.

[11] = test system: IL-8 mRNA in U937 and THP1; test: Northern blot of IL-8 mRNA in monocytic cell lines induced by lipopolysaccharide or GM-CSF; assay type: cell-based
Protocol: The murine fibrosarcoma cell line, L929, was also tested as an indicator for assays of TNF cytotoxicity. Cell growth was assayed by crystal violet staining using optical density as a measure of growth. […] Finally, two monocytic cell lines, U937 and THP1, were used to test the effect of pentoxifylline on the […] of the cytokine IL-8. The cell lines in culture were induced to upregulate IL-8 production by lipopolysaccharide or GM-CSF.

T cell proliferation = details: Singer et al., cited from earlier work
[12] = test system: patients undergoing allogeneic bone marrow transplant; test: Preliminary study in allogeneic bone marrow transplant patients; assay type: in vivo, human; details: first 30 days post-transplant
Protocol: A preliminary study was conducted on patients undergoing allogeneic bone marrow transplant for multiple myeloma, for lymphoid malignancies, or for advanced stage CML or AML. Prednisone is often administered as an immunosuppressant in all experimental groups. In the study, these patients received the drugs for a minimum of 3 days to a maximum of 7 days prior to starting their preparative regimen while in the outpatient department according to the following regimen:
PTX: 600 mg p.o. qid at 9 am, 1 pm, 5 pm and 9 pm;
CIPRO: 500 mg p.o.b.i.d.; and
PD: 0.5 mg/kg b.i.d. (total 1 mg/kg/day changed to methylprednisolone at an equivalent dose starting on day-1).
For the duration of therapy, the patients are continued on the study drugs as follows:
PTX: until day +20 post-transplant then tapered 600 mg/day until off;
CIPRO: until day 30 post-transplant or day of discharge if sooner than day 30; and
PD: tapered starting on day 0 over 14 days until off.
All patients in these studies received PD and cyclosporin as GVHD prophylaxis.

[13] = test system: recipients of matched allogeneic donor marrow; test: Matched allogeneic donor trial; assay type: in vivo, human
From the text: (§5) They are given steroids to reduce inflammation. […] In this group of patients, GVHD approaches 90%.
Again, engraftment was improved, toxicity diminished and survival improved as compared either to standard treatment or to treatment with GM-CSF.

[14] = test system: recipients of marrow from unrelated donors; test: Unrelated donor trial; assay type: in vivo, human
From the text: as §5
Again, the general results were improved as compared to either standard therapy or GM-CSF.

[15] = day 0-28, median (mean ± standard deviation)
[16] = days 0-28, median (mean ± standard deviation)
[17] = median (mean ± standard deviation)

C[C@@H](O)CCCCn1c(=O)c2c(ncn2C)n(C)c1=O [CT1501 R]
block of lyso-PA AT [1]: blocks | block of Ptd Phydr [2]: blocks

O=C(O)c1cn(C2CC2)c2cc(N3CCNCC3)c(F)cc2c1=O [Ciprofloxacin]
inhibition of the transformed phenotype ([3]; ciprofloxacin 50 μg/ml, pentoxifylline 1 mM): significant effect

CC(=O)CCCCn1c(=O)c2c(ncn2C)n(C)c1=O [Pentoxifylline]
elevation of PA and DAG by IL-1 ([4]; 1 mM, all time points (15-60 seconds)): abolishes | cyclical formation of PA, and conversion of PA to DAG ([4]; 10^-11 M IL-1, 100 μM pentoxifylline, 15- and 60-second points): no change | conversion of PA to DAG ([4]; 10^-11 M IL-1, 500 μM pentoxifylline, 15 second time point): slight attenuation | elevation in levels of unsaturated, non-arachidonic PA and of the DAG derived from it ([4]; IL-1 stimulation, concentrations greater than 500 μM): obviate | LPAAT activated by IL-1 ([1]; 1 mM): inhibited | inhibition of lyso PA acyl transferase ([1]; dose range greater than 500 μM): inhibition | inhibitory effect on LPAAT ([1]; relative to 0.5 mM): evident only at higher concentrations | PAPH activated by IL-1 ([2]; 1 mM): inhibited | inhibition of phosphatidate phosphohydrolase ([2]; dose range greater than 500 μM): inhibition | appearance of cells ([3]; 1 mM, 33° C., 5 days): predominantly non-transformed, fibroblastic appearance | growth ([5]; in vitro): inhibition of growth | anchorage-independent growth ([5]; soft agar): suppression | growth stimulated by IL-1 ([6]; FIG. 13A): arrested growth | proliferative effect of TNF ([6]; FIG. 13B): enhances | GM-CSF-stimulated growth of colonies [7]: enhanced | TNF RNA obtained in response to LPS stimulation [8]: undetectable level | production of IL-6 transcripts [9]: increased production | levels of Steel factor transcripts [10]: increases | thymidine uptake (CD3-positive lymphocytes; CD2-positive T-cells, monoclonal antibody 64.1, 5 days, FIG. 21): diminished | TNF transcripts (CD3-positive lymphocytes; Northern blot, FIG. 19A): suppression | IL-2 receptor transcripts (CD3-positive lymphocytes; Northern blot, FIG. 19C): suppression | synthesis of IL-8 (mRNA) [11]: did not inhibit | expression of cell surface antigens (HLA-DR, CD71, CD25, CD69) (T cell proliferation; MLR-stimulated lymphocytes): decreased | blocking a proliferative response (T cell proliferation; PTX added after triggering lymphocytes in a mixed lymphocyte culture): still effective

Cc1nc2sccn2c(=O)c1CCN1CCC(=C(c2ccccc2)c2ccc(F)cc2)CC1 [R 50922]
HPLC pattern (reappearance of PA after 60 seconds) ([4]; IL-1 stimulation): does not alter

GM-CSF: granulocyte-macrophage colony-stimulating factor
platelet transfusion requirements [12]: 87±69 units of platelets | red blood cell requirements [12]: 24.7±24 units of RBCs | Day 100 Survival [13]: 69% | Max Creat [13, 15]: 1.5 (1.8 ± 1.4) mg/dL | Units platelets transfused [13, 15]: 74.0 (87 ± 74) units | Bili ≥5.0 mg/dL (patients) ([13]; days 0-28): 44% | Creat ≥2.0 mg/dL (patients) ([13]; days 0-28): 22% | Infection 0-28 (patients with positive bacterial blood cultures) ([13]; days 0-28): 14% | Max Bili [13, 16]: 5.0 (8 ± 10) mg/dL | ANC ≤100 (days below 100 cells/uL) [13, 17]: 5.0 (6 ± 4) days | ANC ≥100 (day on which ANC ≥100 cells/uL on two consecutive days) [13, 17]: 9.0 (8 ± 6) day | ANC ≥1,000 (day on which ANC ≥1,000 cells/uL on two consecutive days) [13, 17]: 14.0 (16 ± 9) day | Day discharge [13, 17]: 24.0 (26 ± 13) day | Last RBC day (first day RBC count ≥30% for 7 consecutive days untransfused) [13, 17]: 59.0 (63 ± 39) day | Last plt day [13, 17]: 23.0 (17 ± 11) day | Max Creat [14, 15]: 1.1 (1.4 ± 1.2) mg/dL | Units platelets transfused [14, 15]: 92.0 (90 ± 42) units | Bili ≥5.0 mg/dL (patients) ([14]; days 0-28): 46% | Creat ≥2.0 mg/dL (patients) ([14]; days 0-28): 17% | Infection 0-28 ([14]; days 0-28): 7% | Max Bili [14, 16]: 5.5 (7 ± 7) mg/dL | ANC ≤100 (days below 100 cells/uL) [14, 17]: 12 (12 ± 7) days | ANC ≥100 [14, 17]: 18.5 (18 ± 6) day | ANC ≥500 [14, 17]: 22.5 (23 ± 4) day | ANC ≥1,000 [14, 17]: 26.0 (26 ± 5) day | Day initial discharge [14, 17]: 37.0 (37 ± 14) day | Last plt day [14, 17]: 24.5 (26 ± 6) day
